Test results taken from patent publication US10723727B2, “Tubulysin analogs and methods for their preparation” (priority 2016, dated 2020).
pIC50: −log10 of the molar value.

Key:
[1] = biological target: T1, tubulin/RB3-stathmin-like-domain (RB3-SLD-tdm) complex (Sus scrofa, UniProt P02550+P02554); assay: Tubulin Peptide-Binding Site Competition Assay (fluorescence polarization); parameters: species or system Porcine; conditions: FP competition with BODIPY-labeled vinca peptide probe; read after five hours at 22° C.; read-out: Tubulin Peptide-Binding Site Competition Assay IC50
T1 construct: purchased Cytoskeleton, Inc. T240; host or cells: RB3-SLD was made in house in E. coli
Summary of the method: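 The BODIPY vinca-peptide probe was premixed with test compound and then added to porcine tubulin/RB3-SLD, at final concentrations of 3 nM probe, 6 nM tubulin and 100 nM RB3-SLD. The buffer was PIPES pH 7.0 with Tween 20, MgCl2 and EGTA, and 11-point dilutions were run in duplicate. IC50 was fitted from the fluorescence polarization decrease and converted to Ki.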

[2] = tested on: N87 (gastric cancer) cells; assay: In vitro cell assay (MTS cell viability), N87; assay type: cell-based; conditions: 96 h, free compounds; 96 hours after treatment
Summary of the method: (§1)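 Cells seeded 24 h before treatment with antibody-drug conjugates or free compounds, 3-fold serial dilutions at 10 concentrations in duplicate. Viability read by MTS assay 96 h after treatment as % of untreated control; IC50 from four-parameter logistic fit.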

[3] = tested on: MDA-MB-361-DYT2 (breast cancer) cells; assay: In vitro cell assay (MTS cell viability), MDA-MB-361-DYT2; assay type: cell-based; conditions: 96 h, free compounds; 96 hours after treatment
Summary of the method: as §1

[4] = tested on: HT-29 cells; assay: In vitro cell assay (MTS cell viability), HT-29 (target non-expressing); assay type: cell-based; conditions: Homo sapiens, HT-29, 96 h, free compounds; 96 hours after treatment; read-out: HT29 IC50
Description: In Vitro Cell Assay Procedure
Target expressing (BT474 (breast cancer), N87 (gastric cancer), HCC1954 (breast cancer), MDA-MB-361-DYT2 (breast cancer)) or non-expressing (HT-29) cells were seeded in 96-well cell culture plates for 24 hours before treatment. Cells were treated with 3-fold serially diluted antibody-drug conjugates or free compounds (i. e. no antibody conjugated to the drug) in duplicate at 10 concentrations. Cell viability was determined by CellTiter 96® AQueous One Solution Cell Proliferation MTS Assay (Promega, Madison Wis.) 96 hours after treatment. Relative cell viability was determined as percentage of untreated control. IC50 values were calculated using a four parameter logistic model #203 with XLfit v4. 2 (IDBS, Guildford, Surry, UK).

CC[C@H](C)[C@H](NC(=O)[C@@]1(C)CCCN1C)C(=O)N(C)[C@H](C[C@@H](OC(=O)N(C)C)c1nc(C(=O)N[C@@H](Cc2ccc(N)cc2)C[C@H](C)C(=O)O)cs1)C(C)C [#B31, 1,2-dimethyl-D-prolyl-N-{(1R,3R)-1-(4-{[(2R,4S)-1-(4-aminophenyl)-4-carboxypentan-2-yl]carbamoyl}-1,3-thiazol-2-yl)-1-[(dimethylcarbamoyl)oxy]-4-methylpentan-3-yl}-N-methyl-L-isoleucinamide]
pIC50 [1]: 8.51
pIC50 [2]: 8.42
pIC50 [3]: 8.39
pIC50 [4]: 8.41

CC[C@H](C)[C@H](NC(=O)[C@@]1(C)CCCN1C)C(=O)N(C)[C@H](C[C@@H](OC(C)=O)c1nc(C(=O)NCCn2nnc3ccccc32)cs1)C(C)C [#B79, 1,2-dimethyl-D-prolyl-N-[(1R,3R)-1-(acetyloxy)-1-(4-{[2-(1H-benzotriazol-1-yl)ethyl]carbamoyl}-1,3-thiazol-2-yl)-4-methylpentan-3-yl]-N-methyl-L-isoleucinamide]
pIC50 [1]: 8.07
pIC50 [2]: 7.95
pIC50 [3]: 8.24
pIC50 [4]: 8.36

CCNC(=O)O[C@H](C[C@H](C(C)C)N(C)C(=O)[C@@H](NC(=O)C12CCC(CC1)N2C)[C@@H](C)CC)c1nc(C(=O)N[C@@H](Cc2ccc(N)cc2)C[C@H](C)C(=O)O)cs1 [#B26, (2S,4R)-5-(4-aminophenyl)-4-{[(2-[(6R,8R,11S)-11-[(2S)-butan-2-yl]-9-methyl-13-(7-methyl-7-azabicyclo[2.2.1]hept-1-yl)-4,10,13-trioxo-8-(propan-2-yl)-5-oxa-3,9,12-triazatridecan-6-yl]-1,3-thiazol-4-yl}carbonyl)amino]-2-methylpentanoic acid]
pIC50 [1]: > 9.30
pIC50 [2]: 8.11
pIC50 [3]: 8.08
pIC50 [4]: 8.05

CC[C@H](C)[C@H](NC(=O)C12CCC(CC1)N2C)C(=O)N(C)[C@H](C[C@@H](OC(C)=O)c1nc(C(=O)N[C@@H](Cc2ccccc2)C[C@H](C)C(=O)OC)cs1)C(C)C [#B13, methyl (2S,4R)-4-[({2-[(1R,3R)-1-(acetyloxy)-4-methyl-3-{methyl[(2S,3S)-3-methyl-2-{[(7-methyl-7-azabicyclo[2.2.1]hept-1-yl)carbonyl]amino}pentanoyl]amino}pentyl]-1,3-thiazol-4-yl}carbonyl)amino]-2-methyl-5-phenylpentanoate]
pIC50 [1]: 8.43
pIC50 [2]: > 10.21
pIC50 [3]: > 10.44
pIC50 [4]: > 10.66

CC[C@H](C)[C@H](NC(=O)[C@@]1(C)CCCN1C)C(=O)N(C)[C@H](C[C@@H](OC(C)=O)c1nc(C(=O)N[C@@H](Cc2ccccc2)C[C@H](C)C(=O)OC)cs1)C(C)C [#B5, 1,2-dimethyl-D-prolyl-N-[(1R,3R)-1-(acetyloxy)-1-(4-{[(2R,4S)-5-methoxy-4-methyl-5-oxo-1-phenylpentan-2-yl]carbamoyl}-1,3-thiazol-2-yl)-4-methylpentan-3-yl]-N-methyl-L-isoleucinamide]
pIC50 [1]: 7.65
pIC50 [2]: 9.12
pIC50 [3]: 9.44
pIC50 [4]: 8.96

CC[C@H](C)[C@H](NC(=O)[C@@]1(C)CCCN1C)C(=O)N(C)[C@H](C[C@@H](OC(C)=O)c1nc(C(=O)N[C@@H](Cc2ccccc2)c2nccs2)cs1)C(C)C [#B78, 1,2-dimethyl-D-prolyl-N-[(1R,3R)-1-(acetyloxy)-4-methyl-1-(4-{[(1S)-2-phenyl-1-(1,3-thiazol-2-yl)ethyl]carbamoyl}-1,3-thiazol-2-yl)pentan-3-yl]-N-methyl-L-isoleucinamide]
pIC50 [1]: 8.03
pIC50 [2]: 7.40
pIC50 [3]: 7.70
pIC50 [4]: 7.84

CC[C@H](C)[C@H](NC(=O)[C@@]1(C)CCCN1C)C(=O)N(C)[C@H](C[C@@H](O)c1nc(C(=O)N[C@@H](Cc2ccccc2)C[C@H](C)C(=O)O)cs1)C(C)C [#B15, 1,2-dimethyl-D-prolyl-N-[(1R,3R)-1-(4-{[(2R,4S)-4-carboxy-1-phenylpentan-2-yl]carbamoyl}-1,3-thiazol-2-yl)-1-hydroxy-4-methylpentan-3-yl]-N-methyl-L-isoleucinamide]
pIC50 [1]: 8.15
pIC50 [2]: < 7.00
pIC50 [3]: < 7.00
pIC50 [4]: < 7.00

CC[C@H](C)[C@H](NC(=O)[C@@]1(C)CCCN1C)C(=O)N(C)[C@H](C[C@@H](OC(=O)NC)c1nc(C(=O)N[C@@H](Cc2ccc(N)cc2)C[C@H](C)C(=O)O)cs1)C(C)C [#B30, 1,2-dimethyl-D-prolyl-N-{(1R,3R)-1-(4-{[(2R,4S)-1-(4-aminophenyl)-4-carboxypentan-2-yl]carbamoyl}-1,3-thiazol-2-yl)-4-methyl-1-[(methylcarbamoyl)oxy]pentan-3-yl}-N-methyl-L-isoleucinamide]
pIC50 [1]: 8.49
pIC50 [2]: 8.57
pIC50 [3]: 8.49
pIC50 [4]: 8.74

CCNC(=O)O[C@H](C[C@H](C(C)C)N(C)C(=O)[C@@H](NC(=O)[C@@]1(C)CCCN1C)[C@@H](C)CC)c1nc(C(=O)N[C@@H](Cc2ccc(N)cc2)C[C@H](C)C(=O)O)cs1 [#B21, 1,2-dimethyl-D-prolyl-N-{(1R,3R)-1-(4-{[(2R,4S)-1-(4-aminophenyl)-4-carboxypentan-2-yl]carbamoyl}-1,3-thiazol-2-yl)-1-[(ethylcarbamoyl)oxy]-4-methylpentan-3-yl}-N-methyl-L-isoleucinamide]
pIC50 [1]: 8.72
pIC50 [2]: 8.73
pIC50 [3]: 8.71
pIC50 [4]: 8.79

CC[C@H](C)[C@H](NC(=O)C12CCCC(CCC1)N2C)C(=O)N(C)[C@H](C[C@@H](OC(C)=O)c1nc(C(=O)N[C@@H](Cc2ccccc2)C[C@H](C)C(=O)OC)cs1)C(C)C [#B16, methyl (2S,4R)-4-[({2-[(1R,3R)-1-(acetyloxy)-4-methyl-3-(methyl{N-[(9-methyl-9-azabicyclo[3.3.1]non-1-yl)carbonyl]-L-isoleucyl}amino)pentyl]-1,3-thiazol-4-yl}carbonyl)amino]-2-methyl-5-phenylpentanoate]
pIC50 [1]: 7.98
pIC50 [2]: > 10.38
pIC50 [3]: > 10.19
pIC50 [4]: > 10.59

CC[C@H](C)[C@H](NC(=O)[C@H](NC)C(C)C)C(=O)N(C)[C@H](C[C@@H](OC(C)=O)c1nc(C(=O)N[C@@H](Cc2ccccc2)C[C@H](C)C(=O)O)cs1)C(C)C [#B12, N-methyl-D-valyl-N-[(1R,3R)-1-(acetyloxy)-1-(4-{[(2R,4S)-4-carboxy-1-phenylpentan-2-yl]carbamoyl}-1,3-thiazol-2-yl)-4-methylpentan-3-yl]-N-methyl-L-isoleucinamide]
pIC50 [1]: > 9.34
pIC50 [2]: 8.53
pIC50 [3]: 8.53
pIC50 [4]: 8.35

CC[C@H](C)[C@H](NC(=O)C12CC(CN1C)C2)C(=O)N(C)[C@H](C[C@@H](OC(C)=O)c1nc(C(=O)N[C@@H](Cc2ccccc2)C[C@H](C)C(=O)OC)cs1)C(C)C [#B17, methyl (2S,4R)-4-[({2-[(1R,3R)-1-(acetyloxy)-4-methyl-3-(methyl{N-[(2-methyl-2-azabicyclo[2.1.1]hex-1-yl)carbonyl]-L-isoleucyl}amino)pentyl]-1,3-thiazol-4-yl}carbonyl)amino]-2-methyl-5-phenylpentanoate]
pIC50 [1]: 7.72
pIC50 [2]: 9.41
pIC50 [3]: 10.40
pIC50 [4]: 10.43

CCNC(=O)O[C@H](C[C@H](C(C)C)N(C)C(=O)[C@@H](NC(=O)C12CCCC(CCC1)N2C)[C@@H](C)CC)c1nc(C(=O)N[C@@H](Cc2ccc(N)cc2)C[C@H](C)C(=O)O)cs1 [#B27, (2S,4R)-5-(4-aminophenyl)-4-{[(2-{(1R,3R)-1-[(ethylcarbamoyl)oxy]-4-methyl-3-(methyl{N-[(9-methyl-9-azabicyclo[3.3.1]non-1-yl)carbonyl]-L-isoleucyl}amino)pentyl]-1,3-thiazol-4-yl}carbonyl)amino]-2-methylpentanoic acid]
pIC50 [1]: > 9.19
pIC50 [2]: 8.19
pIC50 [3]: 8.26
pIC50 [4]: 8.27

CC[C@H](C)[C@H](NC(=O)[C@@]1(C)CCCN1C)C(=O)N(C)[C@H](C[C@@H](OC(C)=O)c1nc(C(=O)NCCc2cscn2)cs1)C(C)C [#B76, 1,2-dimethyl-D-prolyl-N-[(1R,3R)-1-(acetyloxy)-4-methyl-1-(4-{[2-(1,3-thiazol-4-yl)ethyl]carbamoyl}-1,3-thiazol-2-yl)pentan-3-yl]-N-methyl-L-isoleucinamide]
pIC50 [1]: 7.70
pIC50 [2]: 7.06
pIC50 [3]: 7.38
pIC50 [4]: 7.43

CC[C@H](C)[C@H](NC(=O)C12CC(CCN1C)C2)C(=O)N(C)[C@H](C[C@@H](OC(C)=O)c1nc(C(=O)N[C@@H](Cc2ccccc2)C[C@H](C)C(=O)OC)cs1)C(C)C [#B14, methyl (2S,4R)-4-[({2-[(1R,3R)-1-(acetyloxy)-4-methyl-3-(methyl{N-[(2-methyl-2-azabicyclo[3.1.1]hept-1-yl)carbonyl]-L-isoleucyl}amino)pentyl]-1,3-thiazol-4-yl}carbonyl)amino]-2-methyl-5-phenylpentanoate]
pIC50 [1]: 7.94
pIC50 [2]: 9.47
pIC50 [3]: 10.77
pIC50 [4]: 10.20
